What was measured:
[1] = test system: phenylbenzoquinone-induced stretching or twisting movements (writhing syndrome); experiment: Siegmund test (analgesic action; phenylbenzoquinone writhing syndrome); type: in vivo; settings: mouse, 300 mg/kg PO, 30 minutes before phenylbenzoquinone, protected = less than five stretching movements in 5 minutes
Description: Reference: […], E. A.: CADMUS, R. A.: GOLU: "A Method for evaluating both non-narcotic and narcotic Analgesics." Pro. Soc. Exp. Biol., 1957, b, 95, 729-731.
Principle: Injection of an irritant, phenylbenzoquinone (in 0.02% solution), into the peritoneum of a mouse, determination of the stretching or twisting movements (writhing syndrome), whose frequency is diminished by the preventive administration of analgesic.
The substances were given orally 30 minutes before injection of the irritant. The number of stretching movements between the 5th and 10th minute after injection of phenylbenzoquinone were counted. The percentage of animals protected was calculated. A mouse was considered protected if it executed less than five stretching movements in 5 minutes.

[2] = in vivo; settings: mouse, po
[3] = test system: femoral arterial pressure and cardiac contractile force; experiment: Cardiovascular action in a dog anaesthetised with chloralose; type: in vivo
Description: This action was studied in a dog, anaesthetised with chloralose, its reflexogenic, cardioaortic and sinocarotidian zones being intact (normotense dog), or denervated (hypertense dog). The product to be tested was injected in the saphena vein, and the femoral arterial pressure and cardiac contractile force were recorded.

[4] = test system: mouse; settings: for DL 50: per os, species not given
[5] = Mucolytic action: measurement of the fluidising action of the bronchial secretion (microviscosimeter of the BROOKFIELD type); settings: for Percentage diminution of viscosity: 37° C.
Description: Mucolytic action: measurement of the fluidising action of the bronchial secretion.
The study of the viscosity of an expectoration is effected in vitro. In order to measure viscosity, a microviscosimeter of the BROOKFIELD type is used. With the aid of this apparatus, the resistant couple exerted on a rotor is determined. This rotor, submerged in the liquid whose viscosity is to be measured, rotates at a known constant speed.
1.5 ml of secretion, taken to ambient temperature, was poured into a container of the viscosimeter. After 4 minutes, the temperature of the expectoration was balanced at 37° C., then the motor of the apparatus was started for 5 minutes, after which measurement was effected.
Three rotor speeds were used:
1.5 r.p.m.; 3 r.p.m., and 6 r.p.m.
The three speeds were used for each test. Firstly, the viscosity of the pure expectoration was measured, then that of the expectoration to which had been added one drop of distilled water as a solvent, and whose retained values were later used as witness values, or placebo values.
Thereafter, 1.5 ml of secretion had added to it a drop of the product at the first aqueous concentration envisaged.
The viscosity was measured at the three rotary speeds of the rotor. The same operation was repeated at the following concentrations; 1 mg/ml; 2 mg/ml and 5 mg/ml.
The reference substance was mercapto-ethane sulfonate of sodium or MISTABRON (M.E.S. Na). This substance had been studied under the same experimental conditions at a concentration of 200 mg/ml.

Compound: O=C(O)CSCCC1NC(C(=O)O)CS1 (stereo not shown) [Compound No. 4, 4-carboxy-thiazolidinyl-2-ethyl mercapto acetic acid]
- % of animals protected ([1]; 300 mg/kg): 40%
- LD50 [2]: > 1200 mg/kg

Compound: O=C(O)CSCCC1NC(C(=O)O)CS1 (stereo not shown) [Compound No. 5, 4-carboxy thiazolidinyl 2-ethyl mercapto acetate of di(diisopropylamine)]
- antihypertensive and hypotensive action (in words) ([3]; intravenous, 10 mg/kg): antihypertensive and hypotensive
- Acute Toxicity mouse PO [4]: > 1200 mg/kg
- DL 50 [4]: > 1200 mg/kg
- % of animals protected ([1]; 300 mg/kg): 20%

Compound: O=S(=O)(O)CCS [M.E.S. Na, mercapto-ethane sulfonate of sodium, reference compound]
- Percentage diminution of viscosity ([5]; 200 mg/ml, rotor speed V = 1.5 r.p.m.): 66%
- Percentage diminution of viscosity ([5]; 200 mg/ml, rotor speed V = 3 r.p.m.): 65%
- Percentage diminution of viscosity ([5]; 200 mg/ml, rotor speed V = 6 r.p.m.): 55%

Compound: O=C(O)C1CSC(CCSc2nc3ncccc3o2)N1 (stereo not shown) [compound 11, 2-(2-pyridoxazolyl-2-thioethyl)thiazolidine 4-carboxylic acid]
- % of animals protected [1]: 20%
- LD50 [2]: > 1200 mg/kg

Compound: CCOC(=O)CSCCC1NC(C(=O)O)CS1 (stereo not shown) [Compound No. 8, 2-[(Ethoxycarbonylmethylthio)-ethyl] thiazolidine 4-carboxylate of diisopropylamine]
- Percentage diminution of viscosity ([5]; 1 mg/ml, rotor speed V = 1.5 r.p.m.): 58%
- Percentage diminution of viscosity ([5]; 1 mg/ml, rotor speed V = 3 r.p.m.): 55%
- Percentage diminution of viscosity ([5]; 1 mg/ml, rotor speed V = 6 r.p.m.): 46%
- Percentage diminution of viscosity ([5]; 2 mg/ml, rotor speed V = 1.5 r.p.m.): 60%
- Percentage diminution of viscosity ([5]; 2 mg/ml, rotor speed V = 3 r.p.m.): 57%
- Percentage diminution of viscosity ([5]; 2 mg/ml, rotor speed V = 6 r.p.m.): 47.5%
- Percentage diminution of viscosity ([5]; 5 mg/ml, rotor speed V = 1.5 r.p.m.): 71%
- Percentage diminution of viscosity ([5]; 5 mg/ml, rotor speed V = 3 r.p.m.): 62%
- Percentage diminution of viscosity ([5]; 5 mg/ml, rotor speed V = 6 r.p.m.): 58%
- mucolytic action versus reference M.E.S. Na (in words) ([5]; in accordance with the doses used (1, 2, 5 mg/ml vs 200 mg/ml M.E.S. Na)): comparable with and even superior to the reference substance

Compound: O=C(O)C1CSC(CCSCc2nc3ccccc3[nH]2)N1 (stereo not shown) [Compound No. 10, 2-[2-(benzimidazolylmethyl)-2-thioethyl]-thiazolidine 4-carboxylic acid]
- cardiostimulant properties (in words) ([3]; saphena vein injection, 20 mg/kg): clear cardiostimulant properties
- DL 50 [4]: > 1200 mg/kg

Compound: O=C(O)CSCCC1NC(C(=O)O)CS1 (stereo not shown) [compound 6, 4-carboxy thiazolidinyl 2-ethyl mercapto arginine acetate]
- Acute Toxicity mouse PO [4]: > 1200 mg/kg
- % of animals protected ([1]; acetate, 300 mg/kg): 20%
